According to patent US4657931A, “N-(acyldipeptidyl)-aminoglycols” (G. D. Searle & Co., priority 1985, dated 1987):
Changes are numbered by the printed parent chain. Square brackets hold non-standard residues; d marks the D form. Peptide text beside a SMILES is read from it. * marks the point of attachment. Sta = CC(C)C[C@H](N)[C@@H](O)CC(=O)O; Isovaleryl = CC(C)CC(=O)*

Columns and labels:
human renin = biological target: T1, human renin (Homo sapiens, UniProt P00797); experiment: Human Renin Test (angiotensin I by radioimmunoassay); assay type: biochemical
T1 sequence (P00797 67-406): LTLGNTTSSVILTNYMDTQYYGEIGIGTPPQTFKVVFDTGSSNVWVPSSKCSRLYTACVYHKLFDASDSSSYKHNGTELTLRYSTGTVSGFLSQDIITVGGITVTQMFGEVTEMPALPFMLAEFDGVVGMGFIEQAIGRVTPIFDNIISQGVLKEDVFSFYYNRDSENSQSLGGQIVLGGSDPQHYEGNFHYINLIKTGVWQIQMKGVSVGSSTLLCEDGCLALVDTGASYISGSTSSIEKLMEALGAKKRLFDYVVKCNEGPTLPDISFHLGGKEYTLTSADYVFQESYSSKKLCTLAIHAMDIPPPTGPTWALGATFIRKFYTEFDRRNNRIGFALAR
Description: The enzyme preparation was the international reference standard for human renin while human blood plasma was the angiotensinogen substrate source. The enzyme inhibition assay involved a two-hour incurbation at 37° C. of the following final concentrations of reagents (total volume of 0.25 ml): 0.1 mG units/ml human renin, 0.05 ml human plasma, 6 mM Na2 EDTA, 2.4 mM PMSF, 1.5 mM 8-hydroxyquinoline, 0.4 mg/ml BSA, 0.024 mg/ml neomycin sulfate in a 100 mM Tris Acetate buffer, pH 7.5. The reaction was terminated by boiling for 10 min and the angiotensin I produced was determined by radioimmunoassay.
This assay is a modification of the one by Burton et al. (Biochemistry 14, 3892, 1975).

monkey renin = biological target: T2, monkey renin (Macaca mulatta, UniProt Q6DLW5); experiment: Monkey Renin Test: plasma renin activity of Lasix treated Rhesus monkeys; assay type: in vivo; set-up: Plasma renin activity (PRA), Pre-Lasix -24 hr / Plasma renin activity (PRA), Post-Lasix 0 hr / Plasma renin activity (PRA), Post-Lasix 2 min / Plasma renin activity (PRA), Post-Lasix 5 min / Plasma renin activity (PRA), Post-Lasix 15 min: unit not given here; settings: for PRA after 15 min, in words / PRA at 2 min after treatment, in words: 10 mg/kg iv, lasix treated Rhesus monkeys; for Plasma renin activity (PRA), Post-Lasix 2 min: 2 min after 10 mg/kg iv; for Plasma renin activity (PRA), Post-Lasix 2 min / Plasma renin activity (PRA), Post-Lasix 5 min / Plasma renin activity (PRA), Post-Lasix 15 min / Plasma renin activity (PRA), Pre-Lasix -24 hr / Plasma renin activity (PRA), Post-Lasix 0 hr: mean ± S.E., n = 6; for Plasma renin activity (PRA), Post-Lasix 5 min: 5 min after 10 mg/kg iv; for Plasma renin activity (PRA), Post-Lasix 15 min: 15 min after 10 mg/kg iv; for Plasma renin activity (PRA), Pre-Lasix -24 hr: baseline before lasix and before drug, group later given 10 mg/kg iv; for Plasma renin activity (PRA), Post-Lasix 0 hr: immediately before drug treatment (10 mg/kg iv)
T2 construct: from tissue; host or cells: plasma of furosemide-treated Rhesus monkeys
T2 sequence (Q6DLW5 67-406): T1 sequence (P00797 67-406) with T2A, I148L, S169A, Q204P, R340H
Description: Rhesus monkeys (6/group) weighing (6.3-9.9 kg) were treated with lasix (furosemide) at 2 mg/kg, both in the A.M. and P.M. on day 1. […] Plasma samples (K-EDTA) were taken before the initial lasix, immediately before the drug treatment and at 2, 5, 15 min after the treatment. Plasma renin activity (PRA) was determined by the method of Burton et al., Biochemistry 14, 3892, 1975.

hog renin = settings: after the injection of hog renin into nephrectomized rats; cited from earlier work

Row | SMILES | PRA after 15 min, in words (monkey renin) | PRA at 2 min after treatment, in words (monkey renin) | Plasma renin activity (PRA), Post-Lasix 2 min (monkey renin) | Plasma renin activity (PRA), Post-Lasix 5 min (monkey renin) | Plasma renin activity (PRA), Post-Lasix 15 min (monkey renin) | Plasma renin activity (PRA), Pre-Lasix -24 hr (monkey renin) | Plasma renin activity (PRA), Post-Lasix 0 hr (monkey renin) | other results
1 | CC(C)C[C@H](NC(=O)[C@H](Cc1ccccc1)NC(=O)OC(C)(C)C)C(=O)N[C@@H](Cc1ccccc1)[C@@H](O)CO [Compound 4, N-[(1,1-dimethylethoxy)carbonyl]-L-phenylalanyl-N-[2R, 3-dihydroxy-1S-(phenylmethyl)propyl]-L-leucinamide] | still lowered | returned to pre-lasix values | 8.4 ± 2.6 | 15.1 ± 3.5 | 23.5 ± 4.6 | 12.2 ± 2.9 | 47.2 ± 7.9 | Activity, effect on human renin activity (human renin; Dose 8.4 × 10^-6 (unit not given)): Active
2 | CC(C)(C)OC(=O)N[C@@H](Cc1ccccc1)C(=O)N[C@@H](Cc1c[nH]cn1)C(=O)N[C@@H](Cc1ccccc1)[C@@H](O)CO [Compound 7, N-[(1,1-dimethylethoxy)carbonyl]-L-phenylalanyl-N-[2R,3-dihydroxy-1S-(phenylmethyl)propyl]-L-histidinamide] | – | – | – | – | – | – | – | Activity, effect on human renin activity (human renin; Dose 2.6 × 10^-6 (unit not given)): Active
3 | CC(C)C[C@H](NC(=O)[C@H](Cc1cccc2ccccc12)NC(=O)OC(C)(C)C)C(=O)N[C@@H](Cc1ccccc1)[C@@H](O)CO [Compound 8, N-[(1,1-dimethylethoxy)carbonyl]-3-(1-naphthalenyl)-L-alanyl-N-[2R,3-dihydroxy-1S-(phenylmethyl)propyl]-L-leucinamide] | – | – | – | – | – | – | – | Activity, effect on human renin activity (human renin; Dose 1.5 × 10^-5 (unit not given)): Active
4 | CC(C)C[C@H](NC(=O)[C@H](Cc1ccccc1)NC(=O)CC(C)(C)C)C(=O)N[C@@H](Cc1ccccc1)[C@@H](O)CO [Compound 11, N-(3,3-dimethyl-1-oxobutyl)-L-phenylalanyl-N-[2R,3-dihydroxy-1S-(phenylmethyl)propyl]-L-leucinamide] | – | – | – | – | – | – | – | Activity, effect on human renin activity (human renin; Dose 4 × 10^-6 (unit not given)): Active
5 | CC(C)CC(=O)N[C@H](C(=O)N[C@H](C(=O)N[C@@H](CC(C)C)[C@@H](O)CC(=O)N[C@@H](C)C(=O)N[C@@H](CC(C)C)[C@@H](O)CC(=O)O)C(C)C)C(C)C [Pepstatin, pepstatin, reference compound] (Isovaleryl-VV[Sta]A[Sta]-OH) | returned to post-lasix levels | returned to pre-lasix values | 13.0 ± 0.2 | 22.7 ± 9.2 | 44.7 ± 5.4 | 13.9 ± 2.5 | 53.1 ± 6.1 | Blood pressure in vivo (hog renin): reduce blood pressure
